Columns and labels:
[1] = system: fecal culture B supplemented with E. limosum; test: Supplementation of selected E. limosum strain to non-converting fecal culture B incubated with IX; format: in vitro ADME, human; conditions: 8-PN concentration day one versus day seven
Procedure: The most efficient E. limosum strain, obtained from the selection experiment in example 2, was supplemented to the originally non-converting culture B of example 1, to examine the capacity of this strain to initiate the production of 8-PN in the complex environment of a fecal suspension. The strain was added to the culture in proportions ranging from 0% up to 100% (v/v). This mixture was incubated with 10% (v/v) of 25 mg/L IX for a period of seven days in Brain Heart Infusion broth (with 0.5 g/l cystein-HCl) under anaerobic conditions. The concentration of 8-PN was monitored every two days (FIG. 7).

[2] = cited from earlier work
[3] = system: Eubacterium limosum ATCC 8486; test: Incubation of IX and 8-PN with Eubacterium limosum for 13 days; format: in vitro ADME; conditions: E. limosum, 8-PN as substrate, 13 days
Procedure: Eubacterium limosum ATCC 8486 and Peptostreptococcus productus ATCC 27340 were obtained from the German Collection of Microorganisms and Cell Cultures (DSMZ, Braunschweig, Germany). E. limosum was incubated for 13 days in Brain Heart Infusion broth (with 0.5 g/l cystein-HCl) with 25 mg/l of IX and 8-PN under anaerobic conditions (Table 2). This strain was able to convert IX into 8-PN. […] This feature is clearly different from the metabolic pathway as observed in liver microsomes wherein 8-PN is extensively further metabolised [Nikolic et al. (2005) J. of Mass Spectrom. 40, 289-299; Nikolic et al. (2004) Drug Metabolism and Disposition 32, 272-279].

human fecal cultures = test: Incubation of X or IX with human fecal cultures A-D for 8 days, conversion products detected by HPLC; format: in vitro ADME; conditions: all fecal samples A-D, also with autoclaved cultures (non-enzymatic isomerisation)
Procedure: (§1) Fecal slurries of 20% (w/v) fresh fecal samples were prepared by homogenizing the feces with phosphate buffered saline (0.1 M, pH 7) containing 1 g/l sodiumthioglycolate as reducing agent. The particulate material was removed by centrifugation (1 min, 500×g). The supernatant is hereafter called “the culture”.
(§2) The capacity of the cultures obtained from fecal samples A, B, C and D (further referred as cultures A-D) to degrade or transform the hop prenylflavonoid IX was tested by incubating the fecal cultures (10% (v/v)) in Brain Heart Infusion broth (with 0.5 g/l cystein-HCl) with 25 mg/l of isoxanthohumol for a period of 8 days under anaerobic conditions. Extracts of the incubations at days 0 and 8 were assayed for bioactive transformation products of IX using a Yeast Estrogenic Screen, according to De Boever et al. (2001) Env. Health Perspectives 109, 691-697, based on Routledge & Sumpter (1996) Environ. Toxicol. Chem. 15, 241-248. In brief, Saccharomyces cerevisiae, was transformed with the human estrogen receptor (ERα) gene, together with expression plasmids containing responsive elements and the lacZ reporter gene (encoding the enzyme β-galactosidase). β-galactosidase activity is quantified at 540 nm by the conversion of the chromogenic substance chlorophenol red-β-D-galactopyranoside into chlorophenol red. The bioassay response is expressed as the absorbance at 540 nm divided by the optical density at 630 nm [(A540/A630)net]. The estrogenic activity of the samples was expressed as percentage equivalence to 10 nM estradiol (E2) which elicited a 100% response in the estrogen receptor bioassay. The bioassays were performed in 96-well plates in which 10 μL of the test compounds were tested and incubated with 240 μL of the genetically modified yeast (optical density of 0.25 at 610 nm). Serial dilutions of the test compounds were made in dimethylsulfoxide, which allowed generating dose-response curves for […]. The data were fitted by a 4 parametric logistic model using the Marquardt-Levenberg algorithm (Sigmaplot 4.0, SPSS Inc., Chicago, Ill., USA) (De Boever et al. (2001) Env. Health Perspectives 109, 691-697).
(§3) To further test this transformation, cultures A-D (10% (v/v)) were incubated for 8 days in Brain Heart Infusion broth (with 0.5 g/l cystein-HCl) with either X or IX at a concentration of 25 mg/l under anaerobic conditions and conversion products were detected by HPLC (Table 1). […] However, in culture C almost 40% of 8-PN was recovered, which explains the increase in estrogenic properties of culture C.

[4] = as above; format: in vitro ADME; conditions: human, 25 mg/l substrate, 8 days anaerobic, average (stdev) molar percentage relative to dosed flavonoid
Procedure: as §1, §2, §3

[5] = rats, 1000 mg/kg body weight of X; cited from earlier work

Row | Further degradation of 8-PN [3] | Conversion of X to IX (human fecal cultures) | recovery at 8 days, 25 mg/l ([4]; human fecal culture A (10% v/v), fecal Sample A) | recovery at 8 days, 25 mg/l ([4]; human fecal culture B (10% v/v), fecal Sample B) | recovery at 8 days, 25 mg/l ([4]; human fecal culture C (10% v/v), fecal Sample C) | recovery at 8 days, 25 mg/l ([4]; human fecal culture D (10% v/v), fecal Sample D) | Compound | Further conversion of 8-PN [1] | Concentration needed for harmful in-vivo activity [2] | Share of recovered flavonoids in feces that was unchanged X [5]
1 | did not further degrade 8-PN | – | – | – | – | – | CC(C)=CCc1c(O)cc(O)c2c1O[C@H](c1ccc(O)cc1)CC2=O [8-PN, 8-prenylnaringenin] | No further conversion of 8-PN was detected | ~100 µg/mL | –
2 | – | slightly converted to IX | 74.9% | 80.5% | 73.6% | 65.4% | COc1cc(O)c(CC=C(C)C)c(O)c1C(=O)/C=C/c1ccc(O)cc1 [X, 2′,4,4′-trihydroxy-3′-prenyl-6′-methoxychalcone] | – | – | 89%
